Entries after “also recorded” stand apart in the source; their conditions may differ. Where two headings read alike, the source gives them in different places.
What was measured:
CB1 receptor [1] = biological target: T1, CB1 receptor (Homo sapiens, UniProt P21554); experiment: CB1 beta-arrestin receptor activation; assay type: cell-based; parameters: expressed in transfected cells; host or cells: HEK cells; conditions: HEK cells overexpressing CB1, beta-arrestin system
Method: (§1) FIG. 4. […] Ligand receptor interactions were determined by increases in chemiluminescence generated upon interaction of the EA labeled beta arrestin with the Pro-Link tagged receptor (see Methods). […] See text for more details.
(§2) To this end, recombinant human CB receptors were overexpressed in a beta-arrestin system as described in Experimental Procedures.

human PMN = experiment: Microfluidic chamber screening of PMN chemotaxis in an IL-8 gradient; assay type: cell-based
Method: The fabrication and surface modification of the microfluidic devices were prepared as in refs. (9,22). Whole blood (5-10 μl) diluted in HBSS (1:10, v/v) was introduced into the chemotaxis chamber via a cell inlet and neutrophils were captured along the chamber via P-selectin tethering. Next, the transversal gradient of IL-8 (0-10 nM) was introduced to the chemotaxis chamber. After fifteen minutes, novel DHEA metabolites (at a uniform concentration) were introduced to the chemotaxis chamber from the second gradient generator network, and 10 nM IL-8 gradient was maintained Single-cell neutrophil chemotaxis was recorded using microscopy (Nikon, Eclipse E600) equipped with a video camera (Diagnostic, RT Slider) and subject to analysis using ImageJ software (9).
In parallel to structure elucidation, chemotactic screening of HPLC isolated DHEA metabolites obtained from mouse brain was carried out utilizing microfluidic chamber (FIG. 1c). After IL-8 (0-10 nM gradient) was introduced to the main channel of the microfluidic device, P-selectin tethered leukocytes rapidly migrated along the IL-8 chemotactic gradient at an average rate of 2.3 μm/min. After 15 min, the mixture of metabolites was infused into the microfluidic main channel while an IL-8 (0-10 nM) gradient was maintained (FIG. 1c, left panel). […] This decrease in chemotaxic velocity was maintained even after the gradient was switched back to IL-8.
HPLC isolated dioxygenated DHEA products were individually screened for direct PMN actions using microfluidic chambers.

[2] = tested on: platelet-leukocyte aggregates; experiment: PAF-stimulated platelet-leukocyte aggregate formation in whole blood (overall statements); assay type: cell-based; conditions: human whole blood, 100 nM PAF, 0.01-100 nM dose range
Method: (§3) FIG. 5. […] Human whole blood stimulated with PAF (100 nM) was incubated with 10,17-diHDHEA, 15-HEDPEA or DHEA for 30 min, 37° C. The incubation was stopped via ice-cold RBC lysis buffer. The majority of RBCs were removed and remaining cells were labeled. Platelet-leukocyte aggregate formation or P-selectin mobilization was analyzed using FACS (see Methods). Dose response inhibition of a) platelet-monocyte aggregate formation, b) representative dot plot of platelet-monocyte aggregates, c) platelet-PMN aggregate formation, d) platelet P-selectin mobilization, with indicated products. (diamonds 10,17-diHDHEA; triangles 15-HEDPEA; squares DHEA). Results are mean±SEM of n=5-6 donors. P<0.05 compared to vehicle treatment.
(§4) Whole blood was incubated with either vehicle, HPLC isolated 10,17-diHDHEA or 15-HEDPEA (0.01-100 nM) for 15 min at 37° C. with intermittent mixing. Vehicle or PAF (100 nM, PAF C-16, Cayman Chemical, Ann Arbor, Mich.) was added for another 30 min at 37° C. with intermittent mixing. Incubation was stopped by ice-cold red blood cell lysis buffer (10 min at 4° C.). Cells were collected using centrifugation (210 g, 5 min, 4° C.) then fixed with 3% formalin (15 min, 4° C.). Cells were stained with FITC-anti-human CD41 (1:100, v/v) and PE-anti-human-CD62P (1:100, v/v) for 20 min at 4° C., and were analyzed using a flow cytometry and Cell Quest software as in (23). Cellular composition within whole blood was determined by forward and side scattering as well as cell-specific markers, anti-human-CD41 for platelets, anti-human-CD14 for monocytes and anti-human-CD16 for neutrophils.

[3] = tested on: platelet-monocyte aggregates; experiment: PAF-stimulated platelet-monocyte aggregate formation in whole blood; assay type: cell-based, human; conditions: 100 nM PAF; for Decrease of platelet-monocyte aggregate formation: 10 pM compound, human whole blood
Method: as §3, §4

platelet P-selectin = experiment: Platelet P-selectin surface expression in PAF-stimulated whole blood; assay type: cell-based, human; conditions: 10 pM to 100 nM
Method: as §3
(§5) Whole blood was incubated with either vehicle, HPLC isolated 10,17-diHDHEA or 15-HEDPEA (0.01-100 nM) for 15 min at 37° C. with intermittent mixing. […] Cells were stained with FITC-anti-human CD41 (1:100, v/v) and PE-anti-human-CD62P (1:100, v/v) for 20 min at 4° C., and were analyzed using a flow cytometry and Cell Quest software as in (23). Cellular composition within whole blood was determined by forward and side scattering as well as cell-specific markers, anti-human-CD41 for platelets, anti-human-CD14 for monocytes and anti-human-CD16 for neutrophils.

platelet-PMN aggregates = experiment: PAF-stimulated platelet-PMN aggregate formation in whole blood; assay type: cell-based, human; conditions: 100 nM PAF
Method: as §3, §5

human CB2 receptor [4] = biological target: T2, human CB2 receptor (Homo sapiens, UniProt P34972); experiment: CB2 beta-arrestin receptor activation (PathHunter chemiluminescence); assay type: cell-based
T2 sequence (P34972 whole entry): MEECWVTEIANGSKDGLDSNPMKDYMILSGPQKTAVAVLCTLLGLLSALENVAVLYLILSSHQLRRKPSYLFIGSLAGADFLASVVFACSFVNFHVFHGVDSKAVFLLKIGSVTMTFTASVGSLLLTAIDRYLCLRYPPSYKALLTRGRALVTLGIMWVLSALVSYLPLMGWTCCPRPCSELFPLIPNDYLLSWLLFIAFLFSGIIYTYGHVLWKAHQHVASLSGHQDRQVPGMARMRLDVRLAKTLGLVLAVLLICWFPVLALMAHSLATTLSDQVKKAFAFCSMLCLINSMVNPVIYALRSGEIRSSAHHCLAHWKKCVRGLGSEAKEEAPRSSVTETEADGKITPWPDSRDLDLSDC
Method: as §1
(§6) Receptor activation with the CB2 beta arrestin system was carried out essentially as in (20,21). HEK cells stably overexpressing human CB2 receptor tagged with Pro-Link and EA labeled beta-arrestin (Discoverx, Fremont Calif.) were plated at 20,000 cells/well of a 96 well plate. […] Ligand receptor interaction was determined by measuring chemiluminescence using the Pathhunter EFC detection kit (Discoverx, Fremont, Calif.), generated upon coupling of the EA labeled beta arrestin with the Pro-Link tagged receptor, with a plate reader (Envision, Perkin Elmer, Santa Clara, Calif.).
as §2

[5] = tested on: mouse ischemia reperfusion second organ lung injury; experiment: Hind limb ischemia / second organ lung reperfusion injury; assay type: in vivo
Method: Supplemental FIG. 4. 15-HEDPEA is protective in mouse ischemia reperfusion second organ lung injury. Mice were subjected to hind limb ischemia for 1 hr using tourniquets. 15-HEDPEA was intravenously administered 5 min before tourniquet removal. After 2 hr reperfusion, mouse lungs were harvested and the tissue levels of myeloperoxidase (MPO) were determined using a mouse MPO ELISA. Results are expressed as reduction in lung associated decrease in leukocyte myeloperoxidase values (n=3-6).
Murine hind limb vascular occlusion second organ lung reperfusion injury was performed using 6- to 8-week-old FVB male mice and carried out as in (24).

human CB2 receptor [6] = biological target: T2, human CB2 receptor; experiment: AM630 inhibition of ligand-stimulated activation of cells over-expressing CB2; assay type: cell-based
Method: as §1, §6, §2

CB1 receptor [7] = biological target: T1, CB1 receptor; conditions: from reference 31; read-out: Ki, affinity to CB1 receptor; cited from earlier work
[8] = 10 nM compound, 0-10 nM IL-8 gradient
[9] = HEK cells overexpressing human CB2, beta-arrestin system, 1 h, 37° C., 1 pM to 100 nM, read-out: EC50 for activation of CB2

T1 sequence (P21554 whole entry): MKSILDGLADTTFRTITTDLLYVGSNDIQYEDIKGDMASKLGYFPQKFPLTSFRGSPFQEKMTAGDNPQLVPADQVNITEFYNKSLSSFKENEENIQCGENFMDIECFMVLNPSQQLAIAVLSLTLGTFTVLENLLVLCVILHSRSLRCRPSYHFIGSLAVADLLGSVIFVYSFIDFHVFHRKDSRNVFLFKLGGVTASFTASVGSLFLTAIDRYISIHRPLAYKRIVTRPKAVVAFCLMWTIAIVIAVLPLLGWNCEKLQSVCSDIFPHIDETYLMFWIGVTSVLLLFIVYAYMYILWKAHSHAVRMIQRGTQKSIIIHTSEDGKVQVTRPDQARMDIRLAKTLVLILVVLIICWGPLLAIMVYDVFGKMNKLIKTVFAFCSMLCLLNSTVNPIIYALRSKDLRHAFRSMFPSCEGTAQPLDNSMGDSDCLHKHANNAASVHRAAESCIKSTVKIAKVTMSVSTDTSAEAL

CC/C=C\C[C@H](O)/C=C/C=C\C=C\[C@H](O)C/C=C\C/C=C\CCC(=O)NCCO (single isomer, unassigned) [10,17-diHDHEA, 10,17-dihydroxydocosa-4Z,7Z,11,13Z,15,19Z-hexaenoylethanolamide]
Activation of CB1 receptors (in words) (CB1 receptor [1]): activated CB1 receptors but required much higher concentrations | Effect on PMN chemotaxis (in words) (human PMN; [8]): did not significantly regulate chemotaxis | Effect on PMN chemotaxis (in words) (human PMN; 10 μM compound, IL-8 gradient): rapidly stopped PMN chemotaxis | Effect on platelet-leukocyte aggregate formation (in words) [2]: prevented formation of platelet-leukocyte aggregates | Effect on platelet-leukocyte aggregate formation (in words) ([2]; listed as 10,17S-diHDHEA): block PAF-stimulated platelet-leukocyte aggregate formation | Decrease of platelet-monocyte aggregate formation [3]: ~30% | Maximum reduction of platelet-monocyte aggregate formation ([3]; 100 pM compound, bell-shaped dose response): ~40% | Effect on P-selectin surface expression of platelets (in words) (platelet P-selectin): blocked P-selectin surface expression | Effect on P-selectin surface expression of platelets (in words) (platelet P-selectin; listed as 10,17-diHDEA): inhibited | Decrease of platelet-PMN aggregates (platelet-PMN aggregates; human whole blood): 25%-35% | Inhibition of PMN-platelet aggregate formation (in words) (platelet-PMN aggregates; concentrations as low as 10 pM): inhibited | EC50 (human CB2 receptor [4]; [9]): 0.39 nM

CC/C=C\C[C@H](O)/C=C/C=C\C/C=C\C/C=C\C=C\[C@H](O)CCC(=O)NCCO [4,17-diHDHEA, 4,17-dihydroxydocosa-5,7Z,10Z,13Z,15,19Z-hexaenoylethanolamide]
Effect on PMN chemotaxis (in words) (human PMN; [8]): did not significantly regulate chemotaxis

CC/C=C\C[C@H](O)/C=C/C=C\C/C=C\C=C\[C@H](O)C/C=C\CCC(=O)NCCO [7,17-diHDHEA, 7,17-dihydroxydocosa-4Z,8E,10Z,13Z,15,19Z-hexaenoylethanolamide]
Effect on PMN chemotaxis (in words) (human PMN; [8]): did not significantly regulate chemotaxis

CCCCC[C@H](O)/C=C/C=C\C/C=C\C/C=C\CCCC(=O)NCCO [15(S)-HAEA, 15(S)-HETE ethanolamide, reference compound]
Stimulation of CB2 receptors (in words) (human CB2 receptor [4]; beta-arrestin system, tested dose range 1 pM to 100 nM): did not stimulate CB2 receptors

CC/C=C\CC1OC1C(O)/C=C\C/C=C\C/C=C\C/C=C\CCC(=O)NCCO (centres unmarked) [15-HEDPEA, 15-hydroxy-16(17)-epoxydocosa-4Z,7Z,10Z,13Z,19Z-pentaenoylethanolamide]
Activation of CB1 receptors (in words) (CB1 receptor [1]): activated CB1 receptors but required much higher concentrations | Effect on PMN chemotaxis (in words) (human PMN; [8]): effectively stopped PMN chemotaxis; also recorded: stopped further PMN migration | Time after which further PMN migration stopped (human PMN; 10 nM compound, IL-8 gradient): ~4 min | Effect on platelet-leukocyte aggregate formation (in words) [2]: block PAF-stimulated platelet-leukocyte aggregate formation; also recorded: prevented formation of platelet-leukocyte aggregates | Decrease of platelet-monocyte aggregate formation [3]: ~30% | Reduction of lung PMN infiltration (MPO) compared to vehicle ([5]; 1 μg/mouse intravenously, 1 h ischemia, 2 h reperfusion): ~50% | Organ protection (in words) ([5]; mouse reperfusion second organ injury, 1 μg/mouse): organ protective | EC50 (human CB2 receptor [4]; [9]): 0.1 nM

COc1ccc(C(=O)c2c(C)n(CCN3CCOCC3)c3cc(I)ccc23)cc1 [AM630]
AM630 inhibition of CB2 activation stimulated with 15-HEDPEA (human CB2 receptor [6]; 15-HEDPEA 10 nM): inhibited activation | AM630 inhibition of CB2 activation stimulated with AEA (human CB2 receptor [6]; AEA 10 nM, positive control): inhibited activation | AM630 inhibition of CB2 interaction with 10,17-diHDHEA (human CB2 receptor [6]; at higher concentration, n=3, data not shown): inhibited GPCR CB2 interaction

CCC=CCC=CCC=CCC=CCC=CCC=CCCC(=O)NCCO [DHEA, docosahexaenoylethanolamide, reference compound]
Ki (CB1 receptor [7]): 324 nM | Effect on platelet-leukocyte aggregate formation (in words) [2]: did not significantly inhibit; also recorded: not active | EC50 (human CB2 receptor [4]): 9.8 nM
